Measurements as given in the Kinase Knowledgebase extract (Sharma et al. 2016).

Biological target: CDK2 (human) (UniProt P24941)
Assay: Enzyme Assay

SMILES | IC50 [µM]
NC(=O)c1cc(C(=O)c2sc(Nc3ccc(N4CCC(N5CCCC5)CC4)cc3)nc2N)ccc1O | 10
Nc1nc(Nc2ccc(N3CCC(N4CCCC(O)C4)CC3)cc2)sc1C(=O)c1ccc2c(c1)OCCO2 (stereo not given) | 1.45
CCNC1CCN(c2ccc(Nc3nc(N)c(C(=O)c4cccc(F)c4)s3)cc2)CC1 | 1.01

More lines, now with the values ahead:

IC50 [µM] | SMILES
10 | CN(C)C1CCN(c2ccc(Nc3nc(N)c(C(=O)c4ccc([N+](=O)[O-])cc4)s3)cc2)CC1
10 | Nc1nc(Nc2ccc(N3CCC(N4CCCC(O)C4)CC3)cc2)sc1C(=O)c1ccc(Cl)cc1 (stereo not given)

Biological target: CDK2 (human) (UniProt P24941)
Assay: Enzyme Assay
Remark: another data set of the same source

SMILES | IC50 [µM]
NC(=O)c1cc(C(=O)c2sc(Nc3ccc(N4CCC(N5CCCC5)CC4)cc3)nc2N)ccc1O | 10
Nc1nc(Nc2ccc(N3CCC(N4CCCC(O)C4)CC3)cc2)sc1C(=O)c1ccc2c(c1)OCCO2 (stereo not given) | 1.45
CCNC1CCN(c2ccc(Nc3nc(N)c(C(=O)c4cccc(F)c4)s3)cc2)CC1 | 1.01

Continued, values first:

IC50 [µM] | SMILES
10 | CN(C)C1CCN(c2ccc(Nc3nc(N)c(C(=O)c4ccc([N+](=O)[O-])cc4)s3)cc2)CC1
10 | Nc1nc(Nc2ccc(N3CCC(N4CCCC(O)C4)CC3)cc2)sc1C(=O)c1ccc(Cl)cc1 (stereo not given)
